Laboratory results reported in patent US11000568B2, “Means and methods for treating copper-related diseases” (HELMHOLTZ ZENTRUM MÜNCHEN—DEUTSCHES FORSCHUNGSZENTRUM FÜR …, priority 2015, dated 2021).
Entries after “also recorded” stand apart in the source; their conditions may differ. Counter-ions that a name gives are not always drawn.

How the values were obtained:
LPP−/− rats = assay: Short-term in vivo treatment of LPP−/− rats; design: species or system rat; conditions: MB i.p. 3 or 5 days; D-PA or TETA 4 days
Procedure: LPP rats were treated with MB either by daily i.p. injections for 3 or 5 consecutive days, or twice daily i.p. injections for 8 consecutive days at a dose of 150 mg/kg bw or 4 days via the drinking water with D-PA at a dose of 100 mg/kg bw/d or TETA at 480 mg/kg bw/d, respectively (Togashi et al., Hepatology 15, 82-87 (1992)). Based on a mean copper content of 250 μg/g w.w. in Atp7b−/− rat livers at the age of treatment start (Zischka et al., log. cit.), a LPP−/− rat liver of 8 g w.w. contains around 31.5 μmol copper. Single MB doses were chosen equimolar to this copper amount. […] Assuming 40 ml water intake per day for a rat weighing 250 g this translates to a dose of 480 mg/kg bw/d. With respect to the mean liver copper content in LPP−/− rats aged 85 days, the molar ratios of the chelators applied was MB 1:D-PA 4.3:TETA 17.4, respectively. For the intravenous MB application (150 mg/kg bw), catheters connected to a PinPort™ (Instech Laboratories, Inc., USA) were inserted in the femoral vein of the rat, fixed with non-absorbable sutures and subcutaneously tunneled and exteriorized through a skin incision made between the shoulders.
Formalin-fixed, paraffin-embedded liver samples were cut into 4 μm-thick sections and either stained with hematoxylin and eosin for standard analyses or with Masson trichrome for analysis of fibrotic tissue. AST activity and bilirubin concentration in animal plasma or serum were measured with a Reflotron system (Roche).
Copper in liver homogenates, cell lysates and mitochondrial preparations were analyzed by ICP-OES (Ciros Vision, SPECTRO Analytical Instruments GmbH) after wet ashing of samples with 65% nitric acid (Zischka et al., log. cit.).
The efficiency of a short-term MB treatment schedule was assessed in LPP−/− rats at the age of liver disease onset (85-90 days). Animals received MB (i.p.) either for 3 or 5 days or the clinically used copper chelators D-PA or TETA, which were orally administered for 4-days.

LPP−/− livers = assay: Two hour LPP−/− liver perfusion; design: species or system rat; conditions: MB 0.7 μM, TTM 0.8 μM, D-PA 2.2 μM, TETA 1.8 μM
Procedure: LPP−/− livers (animal age 79-83 days) were perfused in a single pass manner with Krebs-Ringer bicarbonate solution containing 5 mM glucose (Beuers et al., J Biol Chem 278, 17810-17818 (2003)). The medium was gassed with 95% O2/5% CO2 and kept at 37° C. Rat livers were perfused via the portal vein (Beuers et al., log. cit.), the right lateral liver lobe was ligated and its copper content served as pre-perfusion control (Beuers et al., Hepatology 33, 1206-1216 (2001)). After cannulation of the bile duct a 20 min sample of bile was collected before the copper chelators were continuously added to the perfusion medium. Bile and outflow perfusate were collected in 10 min intervals as described elsewhere (Beuers et al., log. cit.). D-PA*HCl (20 mg/108 μmol), TETA*2HCl (20 mg/91 μmol), TTM*2NH4 (10 mg/38 μmol) and MB (40 mg/35 μmol) were each dissolved in 50 ml 0.9% NaCl, and continuously added to the perfusion medium via a perfusion pump (Perfusor, Braun, Melsungen) within 2 hours. The molar ratios of the chelators applied was MB 1:D-PA 3.1:TETA 2.6:TTM 1.1. LDH in the outflow perfusate was measured every ten minutes as described (Beuers et al., log. cit.). Control perfusions were done with Krebs-Ringer bicarbonate solution only.

LPP−/− mitochondria = assay: Chelator treatment of freshly isolated copper burdened LPP−/− mitochondria (copper extraction); design: species or system rat; conditions: 30 min incubation
LEC rats = conditions: 100 mg/kg bw/d via drinking water, long-term; cited from earlier work

| Compound | mitochondrial copper (LPP−/− rats) | serum AST levels (LPP−/− rats) | whole liver copper (LPP−/− rats) | also measured |
| --- | --- | --- | --- | --- |
| NCCNCCNCCN [TETA, trientine*2 HCl, reference compound] | No copper reduction | unable to avoid the increase of serum AST levels | No copper reduction | copper released into bile (LPP−/− livers; HCl): did not provoke any detectable release of copper into the bile; also recorded: did not bring copper into bile |
| tetrathiomolybdate*2 NH4 [TTM] |  |  |  | copper associated with LPP−/− mitochondria (LPP−/− mitochondria; 2 mM each): rapidly decreased copper |
| CC(C)(S)[C@@H](N)C(=O)O.Cl [D-PA, D-penicillamine*HCl, reference compound] | No copper reduction | unable to avoid the increase of serum AST levels | No copper reduction | copper released into bile (LPP−/− livers): did not provoke any detectable release of copper into the bile; also recorded: did not bring copper into bile; onset of hepatitis (LEC rats): successfully prevent the onset of hepatitis |
| CC(NC(=O)C(C)NC(=S)C1N=C(C(NC(=O)C(CO)NC(=O)C(C)NC(=S)C2N=C(C(=O)CCCNC(=N)N)NC2=O)C(C)OS(=O)(=O)O)OC1=O)C(=O)O (centres unmarked) [mb-SB2] |  |  |  | copper depletion from LPP−/− mitochondria (LPP−/− mitochondria; 1 mM, mitochondria from three LPP−/− rats, vs buffer treated control): depletes copper at least as effective as another MB peptide mb-OB3b; also recorded: decreased at least as effective as the MB peptide mb-OB3b |
